# Measured values taken from patent publication US11179384B2, “Treatment of nonalcoholic fatty liver disease” (TAKEDA GMBH, priority 2016, dated 2021).
# Key:
# Male C57BL/6J mice (DIO) = experiment: Body weight, fat and lean mass, 4 weeks treatment in diet-induced obese (DIO) mice; type: in vivo; details: for Body weight change from pretreatment (Day 0): mean±S.D., vehicle +3.8%
# Method: Male C57BL/6J mice were obtained from CLEA Japan, Inc. The mice were fed High fat diet D12451 (Research diets, Inc) from 5 week to 54-week old and water ad libitum.
# All mice were housed individually in animal cages and used for the study after 2 weeks of acclimation period. Animal groups (n=7) were treated with either vehicle (0.5 w/v % methylcellulose, p.o.) or Compound A (1 mg/kg or 3 mg/kg, p.o. suspension in 0.5 w/v % methylcellulose solution) in the evening once a day for 4 weeks from 50 weeks of age. Body weight was measured 2 or 3 times per week. Regarding body composition fast mass and lean mass were measured.
# Body composition (fat mass and lean mass) was measured by Echo-MRI-900 (ALOKA Japan).
# All data are presented as mean±S.D. For evaluation of the effects of Compound A, statistical significances between vehicle (p.o.) and Compound A treated groups were analyzed with one-tailed Williams' test or Shirley-Williams test when the variances among the groups were homogeneous or heterogeneous, respectively. The p-values less than 0.025 were considered statistically significant in one-tailed Williams' test or Shirley-Williams test. Body weight change from pretreatment (Day 0) was calculated using the following formula: [(BW-BW at Day 0)/BW at Day 0]×100.
# Female db/db mice = experiment: HbA1c, 4 weeks treatment in db/db mice; type: in vivo; details: 28 days, vehicle 9.06%
# Method: Female db/db mice were purchased from Taconic (Lille Skensved, Denmark) at 5-6 weeks of age and were maintained under standard conditions (5 animals/cage; 12 h light-dark cycle; room temperature of 22±2° C.; relative humidity of 60±15%). All mice had free access to water and standard chow (Provimi Kliba, Kaiseraugst, Switzerland). Four days upon arrival animals were randomized based on body weight and levels of glycated hemoglobin 1c (HbA1c). At 7 weeks of age, animals were treated daily by oral gavage with vehicle (4% methylcellulose) or with Compound A (composed in aqueous 4% methylcellulose) using doses of 1, 3 and 10 mg/kg s.i.d. (doses related to free base). The required dose was applied in a volume of 10 ml/kg body weight. Each dose group consisted of 10 animals. At the end of the treatment period plasma samples were isolated for determination of HbA1c levels. All experimental procedures were conducted according to the German Animal Protection Law.
# HbA1c was analyzed from tail-tip-blood (HbA1c determination before treatment) as well as from blood collected from the retro-orbital venous plexus (HbA1c determination after 4 weeks treatment) using the Hemoglobin A1c Test (Siemens, Bad Nauheim, Germany).
# Statistical analysis: Values are presented as means±SEM. Statistical differences were determined using one-way-ANOVA followed by a post-hoc analysis with Dunnet's correction (GraphPad Prism).
# [1] = 1 mg/kg p.o. once a day for 4 weeks
# [2] = 1 and 3 mg/kg p.o. once a day for 4 weeks
compound,measurement,setting,value
"CCOc1cc2c(cc1OC)C(c1ccc(=O)n(C)c1)=N[C@@H]1CC[C@@H](O)C[C@H]21 [Compound A, 5-((2R,4aR,10bR)-9-Ethoxy-2-hydroxy-8-methoxy-1,2,3,4,4a,10b-hexahydro-phenanthridin-6-yl)-1-methyl-1H-pyridin-2-one]",body weight reduction corrected with vehicle-treated body weight change,Male C57BL/6J mice (DIO); [1],−8.7±3.5%
same,Body weight change from pretreatment (Day 0),Male C57BL/6J mice (DIO); [1],−4.9±3.5%
same,Body weight change from pretreatment (Day 0),Male C57BL/6J mice (DIO); 3 mg/kg p.o. once a day for 4 weeks,−17.2±4.0%
same,body weight during the 4-week study period,Male C57BL/6J mice (DIO); 1 and 3 mg/kg p.o. once a day,durable body weight lowering effect
same,fat mass (Echo-MRI),Male C57BL/6J mice (DIO); [2],dose dependently and significantly decreased
same,lean mass (Echo-MRI),Male C57BL/6J mice (DIO); [2],without affecting
same,mean HbA1c,"Female db/db mice; 1 mg/kg p.o. daily, 1 mg/kg",7.27%
same,mean HbA1c,"Female db/db mice; 3 mg/kg p.o. daily, 3 mg/kg",7.06%
same,mean HbA1c,"Female db/db mice; 10 mg/kg p.o. daily, 10 mg/kg",6.16%
